Measurements from patent US20240246941A1, “SUBSTITUTED 4-(3-AMINOPROP-1-YL)AMINOQUINOLINE ANALOGS AS MODULATORS OF MELANOMA-ASSOCIATED ANTIGEN 11 UBIQUITIN LIGASE” (ST. JUDE CHILDREN'S RESEARCH HOSPITAL, INC., priority 2020, published 2024).

Biological target: MAGE-A11:PCF11 (Homo sapiens (Human), UniProt P43364)
Assay: TR-FRET single point screening at 15 μM
Format: binding
Set-up: unit not given here
Settings: single point TR-FRET screening at 15 μM against MAGE-A11:PCF11
In short: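 Single-point screen at 15 μM (0.25% DMSO) measuring disruption of GST-MAGEA11 (5 nM) binding to FAM-PCF11_4 peptide (200 nM) detected by Tb-anti-GST (5 nM). Buffer 50 mM Tris pH 7.5, 20 mM MgCl2, 0.1 mg/ml BSA, 1 mM DTT; 90 min at ~25 °C; 520/490 nm ratio converted to % inhibition versus controls.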

Chain of MAGE-A11:PCF11 (P43364 218-429): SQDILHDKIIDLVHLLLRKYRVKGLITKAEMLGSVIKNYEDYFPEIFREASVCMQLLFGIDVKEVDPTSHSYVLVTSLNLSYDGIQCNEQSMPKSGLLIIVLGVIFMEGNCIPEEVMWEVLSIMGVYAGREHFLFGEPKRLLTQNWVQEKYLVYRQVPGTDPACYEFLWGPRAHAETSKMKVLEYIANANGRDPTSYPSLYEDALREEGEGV

In order of falling TR-FRET signal:
1. Fc1cccc(C(F)(F)F)c1CN(CCCCNc1ccnc2cc(Cl)ccc12)Cc1ccccc1 [SJ000520465]  28.75
2. CCC(CC)CN(CCCCNc1ccnc2cc(Cl)ccc12)Cc1ccccc1 [SJ000361195]  25.54
3. FC(F)(F)c1cc(CN(CCCCNc2ccnc3cc(Cl)ccc23)Cc2ccccc2)ccc1Cl [SJ000520466]  25.28
4. Clc1ccc2c(NCCCCN(Cc3ccccc3)Cc3ccc4ccccc4c3)ccnc2c1 [SJ000361205]  24.64
5. CCCCCCN(CCCCNc1ccnc2cc(Cl)ccc12)Cc1ccccc1 [SJ000361212]  23.58
6. Clc1ccc2c(NCCCCN(Cc3ccccc3)CC3CC3)ccnc2c1 [SJ000357485]  18.34
7. Cc1[nH]cnc1CN(CCCCNc1ccnc2cc(Cl)ccc12)Cc1ccccc1 [SJ000520428]  15.11
8. CCCCCN1CCC(Nc2ccnc3cc(Cl)ccc23)CC1 [SJ000523088]  12.17
9. CCc1ccc(S(=O)(=O)c2cnc3ccccc3c2N2CCN(C)CC2)cc1 [SJ000278939]  11.58
10. CCOC(=O)c1cnc2c(C)c(C)ccc2c1NCCN(C)C [SJ000134078]  8.538
11. CCCN(CCCCNc1ccnc2cc(Cl)ccc12)Cc1c(F)cccc1OC [SJ000311203]  6.844
12. CCCN(CCCCNc1ccnc2cc(Cl)ccc12)Cc1sccc1C [SJ000311199]  6.494
13. CCOC(=O)c1cnc2c(ccc3ccccc32)c1NCCN(C)C [SJ000019487]  6.418
14. CN(C)c1cc(NC(=O)CN2CCOCC2)c2ccccc2n1 [SJ000111677]  4.988
15. Cc1ccc(S(=O)(=O)c2cnc3ccccc3c2N2CCN(c3ccc(C)cc3C)CC2)cc1 [SJ000117080]  3.172
16. Cc1ccc2ncc(S(=O)(=O)c3ccccc3)c(N3CCN(Cc4ccccc4)CC3)c2c1 [SJ000247256]  2.673
17. CCOC(=O)c1cnc2c(C)c(Cl)ccc2c1NCCN(C)C [SJ000037393]  −1.333
18. O=[N+]([O-])c1ccc(CN2CCC(Nc3ccnc4cc(Cl)ccc34)CC2)cc1 [SJ000523096]  −4.954
19. CN1CCN(c2c(S(=O)(=O)c3ccccc3)cnc3ccc(Cl)cc23)CC1 [SJ000083950]  −5.374
20. COc1ccccc1N1CCN(c2c(S(=O)(=O)c3ccc(C)c(C)c3)cnc3ccccc23)CC1 [SJ000117068]  −5.706
21. COc1ccc(N2CCN(c3c(S(=O)(=O)c4ccc(C)cc4)cnc4ccc(Cl)cc34)CC2)cc1 [SJ000117072]  −5.838
22. CCOc1ccc2ncc(S(=O)(=O)c3ccc(C)cc3)c(N3CCN(CC)CC3)c2c1 [SJ000083964]  −5.899
23. CCOC(=O)c1cnc2c(CC)cccc2c1NCCN1CCOCC1 [SJ000279714]  −6.103
24. Cc1ccc(C)c(N2CCN(c3c(S(=O)(=O)c4ccccc4)cnc4ccc(F)cc34)CC2)c1 [SJ000117083]  −15.38
25. CC(=O)Nc1ccc(S(=O)(=O)N2CCN(c3ccnc4cc(Cl)ccc34)CC2)cc1 [SJ000193862]  −16.19
26. O=S(=O)(c1ccc(Br)cc1)N1CCN(c2ccnc3cc(Cl)ccc23)CC1 [SJ000201754]  −16.75
27. CCOc1ccc2ncc(C(=O)c3ccc(OC)cc3)c(N3CCN(C)CC3)c2c1 [SJ000247277]  −18.95
28. CCOc1ccc2ncc(S(=O)(=O)c3ccc(C)cc3)c(N3CCN(c4ccccc4)CC3)c2c1 [SJ000117049]  −45.32
29. COc1ccc2ncc(S(=O)(=O)c3ccccc3)c(N3CCN(Cc4ccccc4)CC3)c2c1 [SJ000247248]  −71.16
30. CCCN(CCCNc1c2ccc(Cl)cc2nc2ccc(OC)cc12)Cc1ccc(-c2ccccc2[N+](=O)[O-])o1 [SJ000523019]  −102.8
31. CCCN(CCCNc1c2ccc(Cl)cc2nc2ccc(OC)cc12)Cc1ccc(C(=O)OC)cc1 [SJ000523018]  −118.6
32. COc1ccc2nc3cc(Cl)ccc3c(NCCCNCc3cc4ccccc4o3)c2c1 [SJ000520997]  −146.7
33. CCCCCCN(CCC)CCCNc1c2ccc(Cl)cc2nc2ccc(OC)cc12 [SJ000520963]  −153.7
34. CCCN(CCCNc1c2ccc(Cl)cc2nc2ccc(OC)cc12)Cc1cn(C)c2ccccc12 [SJ000522964]  −162.2
35. CCCN(CCCNc1c2ccc(Cl)cc2nc2ccc(OC)cc12)CC(C)CC (centres unmarked) [SJ000520959]  −264.8
36. COc1ccc2nc3cc(Cl)ccc3c(NCCCNCc3nccn3C)c2c1 [SJ000521006]  −279.9
37. COc1ccc2nc3cc(Cl)ccc3c(NCCCNCc3cccc(F)c3)c2c1 [SJ000521004]  −366.2
38. COc1ccc2nc3cc(Cl)ccc3c(NCCCNCc3cccn3C)c2c1 [SJ000520985]  −402.5
39. COc1ccc2nc3cc(Cl)ccc3c(NCCCNCC3CCCCC3)c2c1 [SJ000361090]  −411.2
40. CCC(CC)CNCCCNc1c2ccc(Cl)cc2nc2ccc(OC)cc12 [SJ000361092]  −427.4
41. COc1ccc2nc3cc(Cl)ccc3c(NCCCNCCC(C)(C)C)c2c1 [SJ000520994]  −456.3
42. CCCNCCCNc1c2ccc(Cl)cc2nc2ccc(OC)cc12 [SJ000361096]  −498.5
43. COc1ccc2nc3cc(Cl)ccc3c(NCCCNCCC(C)SC)c2c1 (centres unmarked) [SJ000361098]  −514.5

Same assay, conditions: single point TR-FRET screening of quinoline compounds against MAGE-A11:PCF11; 15 μM

In order of rising TR-FRET signal:
1. CCCN(CCCNc1c2ccc(Cl)cc2nc2ccc(OC)cc12)Cc1nc2ccccc2s1 [SJ000522969]  −68.77
2. COc1ccc2nc3cc(Cl)ccc3c(NCCCNCc3cccc(C)c3)c2c1 [SJ000522956]  −7.089
3. CCOC(=O)c1cnc2c(CC)cccc2c1NCCCN1CCOCC1 [SJ000185196]  −4.499
4. CCCN(CCCNc1ccnc2cc(Cl)ccc12)CCc1ccccc1 [SJ000357574]  4.884
5. CCOC(=O)c1cnc2ccc(OCC)cc2c1NCCCN1CCOCC1.Cl [SJ000279525]  5.532
6. CCCN(CCCNc1ccnc2cc(C(F)(F)F)ccc12)Cc1ccc2c(c1)OCO2 [SJ000361270]  5.623
7. CCCN(CCCNc1ccnc2cc(C(F)(F)F)ccc12)Cc1ccccc1OC(F)(F)F [SJ000520470]  5.934
8. CCCN(CCCNc1ccnc2cc(Cl)ccc12)Cc1ccoc1 [SJ000357442]  6.214
9. Clc1ccc2c(NCCCNCc3ccco3)ccnc2c1 [SJ000000502]  6.349
10. CCOC(=O)c1cnc2c(C)cc(C)cc2c1NCCCN1CCOCC1 [SJ000173725]  6.494
11. O=C(O)c1ccccc1CN(CCCNc1ccnc2cc(Cl)ccc12)Cc1ccccc1 [SJ000361180]  9.598
12. CCC(C)CNCCCNc1ccnc2cc(Cl)ccc12 (centres unmarked) [SJ000361104]  9.822
13. CCCN(CCCNc1ccnc2cc(Cl)ccc12)Cc1scnc1C [SJ000523005]  11.85
14. CCCCN(CCC)CCCNc1ccnc2cc(Cl)ccc12 [SJ000357571]  12.78
15. CCCN(CCCNc1ccnc2cc(C(F)(F)F)ccc12)Cc1cc2ccccc2s1 [SJ000520482]  13.01
16. CCCN(CCC)CCCNc1ccnc2cc(C(F)(F)F)ccc12 [SJ000361250]  15.68
17. CCCN(CCCNc1c2ccc(Cl)cc2nc2ccc(OC)cc12)Cc1cccc(C(F)(F)F)c1 [SJ000522986]  16.15
18. O=[N+]([O-])c1cccc(CN(CCCNc2ccnc3cc(Cl)ccc23)Cc2ccccc2)c1 [SJ000361178]  17.02
19. CC(CCN(CCCNc1ccnc2cc(Cl)ccc12)Cc1ccccc1)c1ccccc1 (centres unmarked) [SJ000311184]  17.35
20. FC(F)(F)c1ccc2c(NCCCNCc3ccco3)ccnc2c1 [SJ000361113]  18.05
21. CCCN(CCCNc1ccnc2cc(C(F)(F)F)ccc12)Cc1ccc(C)s1 [SJ000361258]  19.08
22. CCCN(CCCNc1ccnc2cc(Cl)ccc12)Cc1sccc1C [SJ000357439]  19.73
23. Clc1ccc2c(NCCCNCc3cc(Br)cs3)ccnc2c1 [SJ000521028]  22.11
24. CCCCN(CCC)CCCNc1ccnc2cc(C(F)(F)F)ccc12 [SJ000520477]  23.58
25. CCC(CC)CNCCCNc1ccnc2cc(C(F)(F)F)ccc12 [SJ000361111]  24.33
26. CCCN(CCCNc1ccnc2cc(Cl)ccc12)CCC(C)c1ccccc1 (centres unmarked) [SJ000357573]  24.98
27. CCCN(CCCNc1ccnc2cc(Cl)ccc12)Cc1c[nH]c2ccccc12 [SJ000523007]  26.23
28. FC(F)(F)c1cccc(Cc2ccc3c(NCCCNCc4ccco4)ccnc3c2)c1 [SJ000311298]  27.01
29. CC(C)(C)CCNCCCNc1ccnc2cc(C(F)(F)F)ccc12 [SJ000521053]  27.36
30. Clc1ccc2c(NCCCN(Cc3ccccc3)Cc3ccc(Br)s3)ccnc2c1 [SJ000357461]  27.5
31. COc1cccc(Oc2ccc3c(NCCCNCc4ccco4)ccnc3c2)c1 [SJ000311214]  29.11
32. Cn1cc(CNCCCNc2ccnc3cc(C(F)(F)F)ccc23)c2ccccc21 [SJ000521043]  29.11
33. CCCN(CCCNc1ccnc2cc(C(F)(F)F)ccc12)CC(CC)CC [SJ000361269]  30.66
34. CCCN(CCCNc1ccnc2cc(Cl)ccc12)Cc1ccc2ccccc2c1 [SJ000523040]  32.85
35. CCCN(CCCNc1c2ccc(Cl)cc2nc2ccc(OC)cc12)Cc1ccc2[nH]ccc2c1 [SJ000522732]  39.47
36. CC(C)(C)c1ccc(Oc2ccc3c(NCCCNCc4ccco4)ccnc3c2)cc1 [SJ000311234]  57.54
37. CCCN(CCCNc1ccnc2cc(Cl)ccc12)Cc1ccc2[nH]ccc2c1 [SJ000522746]  96.84
